We go through 2 compounds from article PMC9317966, “Structure-function analysis of the AMPK activator SC4 and identification of a potent pan AMPK activator” (Biochemical Journal, 2022).

The test addresses T1, E. coli-expressed His-α2β1γ1 AMPK (Homo sapiens, UniProt P54646+Q9Y478).
T1 construct: Recombinant full-length AMPK 6xHisα2β1γ1 was expressed in E. coli Rosetta 2 (DE3); made in house; host or cells: E. coli Rosetta 2 (DE3)
Put plainly: In solution SAMS kinase assay, E. coli-expressed myristoylated His-α2β1γ1, CaMKK2-treated. In kind it is biochemical. The following applies: for EC50 / Max. fold activation: E. coli-expressed α2β1γ1, CaMKK2-treated; for sensitivity to activation relative to immobilised GST-α2β1γ1 from HEK293T/17 cells: His-tagged myristoylated α2β1γ1, E. coli, CaMKK2-treated. The text has this:
We directly compared in vitro potencies of pan activators by performing radiolabel kinase assays with γ1AMPK complexes. Initially, we used GST-tagged γ1AMPK expressed in HEK293T/17 cells and immobilised on glutathione-Sepharose (Figure 2 and Table 2). […] These assays used AMPK purified from Sf9 insect cells or E. coli that was pre-treated with CaMKK2. […] However, relative to immobilised GST-α2β1γ1 from HEK293T/17 cells, His-tagged and myristoylated α2β1γ1 AMPK (expressed in E. coli, CaMKK2-treated and assayed in solution) was at least 10-fold more sensitive to activation by both MK-8722 and MSG011 (Supplementary Figure S3B), indicating the GST-affinity tag or CaMKK2 treatment may exert some influence on sensitivity to these activators.
Recombinant full-length AMPK 6xHisα2β1γ1 was expressed in E. coli Rosetta 2 (DE3) (Merck Millipore) after double-transformation of pET-Duet-1 (α and γ subunits) and pCOLA (β subunit) vectors. Expression cultures were grown at 37°C in Luria-Bertani broth supplemented with 100 µg ml^−1 ampicillin and 50 µg ml^−1 kanamycin. Cultures shaking at 120 rpm in PYREX 2800 ml Fernbach-style culture flasks with baffles (Corning) were grown to an optical density (OD600) of 3.0 before induction with 500 µM isopropyl-β-D-1-thiogalactopyranoside (IPTG; Gold Biotechnology) and incubation overnight at 16°C. Cell pellets were resuspended in lysis buffer (50 mM TRIS pH 7.6, 500 mM NaCl, 5% (v/v) glycerol, 50 mM imidazole, 2 mM β-mercaptoethanol, 0.01 mM leupeptin, 0.1 mM AEBSF, 0.5 mM benzamidine hydrochloride), lysed using a precooled EmulsiFlex-C5 homogeniser (Avestin) and clarified via centrifugation (16 000g, 30 min, 4°C). Supernatant was passed through a HisTrap HP 5 ml Ni^2+ column (GE Healthcare) at 1 ml min^−1. The column was washed with 10 column volumes of chilled Ni^2+ column buffer (50 mM TRIS pH 7.6, 500 mM NaCl, 10% (v/v) glycerol, 50 mM imidazole, 2 mM β-mercaptoethanol) before elution with Ni^2+ column buffer supplemented with 400 mM imidazole. Proteinaceous fractions were then separated on a HiLoad 16/600 Superdex 200 gel filtration column (GE Healthcare) pre-equilibrated with size exclusion column buffer (SEC buffer; 50 mM TRIS pH 8.0, 150 mM NaCl, 2 mM tris(2-carboxyethyl) phosphine (TCEP)). AMPK containing fractions were pooled and concentrated to ∼2 mg ml^−1 using Amicon centrifugal filter units (Merck Millipore) prior to CaMKK2 treatment.
To phosphorylate AMPK, purified protein was incubated in the presence of 0.5 mM ATP, 0.5 mM AMP, 2.5 mM MgCl2 (Merck Millipore), SEC buffer and purified CaMKK2 (1 : 2500 mass ratio of CaMKK2:AMPK; for 1 h at 22°C with gentle rolling. The phosphorylation reaction was terminated by directly loading onto a HiLoad 16/600 Superdex 200 gel filtration column pre-equilibrated with SEC buffer. Protein was either assayed or concentrated to ∼10 mg ml^−1 using Amicon centrifugal filter units and flash frozen in L-N2 and stored at −80°C. The purified AMPK was analysed by ToF-MS and sample purity confirmed by SDS–PAGE.
AMPK activity was determined by phosphorylation of the SAMS peptide (Purar Chemicals, sequence: NH2-HMRSAMSGLHLVKRR-COOH) in a 25 µl reaction volume containing 100 µM SAMS peptide, 5 mM MgCl2, 200 µM ATP, [γ-^32P]-ATP (PerkinElmer) and assay buffer (50 mM HEPES pH 7.4, 1 mM DTT and 0.02% (v/v) Tween-20) and purified AMPK. Phosphotransferase activity was conducted at 30°C for 10 min and reactions were quenched by spotting 15 µl onto phosphocellulose ion-exchange chromatography paper (made in-house), followed by repeated washes in 1% H3PO4 (Merck Millipore). Ultima Gold liquid scintillation fluid (5 ml; PerkinElmer) was added to vials containing dried phosphocellulose papers, and the level of ^32P-transfer to the SAMS peptide was determined using a Tri-Carb 2900TR liquid scintillation counter (PerkinElmer).
⍺1β1γ1 – in solution E. coli-expressed ⍺2β1γ1
log [compound] (M) log [compound] (M)
Compound EC (nM) Max. fold Compound EC50 (nM) Max. fold […]

T1 sequence (P54646 whole entry): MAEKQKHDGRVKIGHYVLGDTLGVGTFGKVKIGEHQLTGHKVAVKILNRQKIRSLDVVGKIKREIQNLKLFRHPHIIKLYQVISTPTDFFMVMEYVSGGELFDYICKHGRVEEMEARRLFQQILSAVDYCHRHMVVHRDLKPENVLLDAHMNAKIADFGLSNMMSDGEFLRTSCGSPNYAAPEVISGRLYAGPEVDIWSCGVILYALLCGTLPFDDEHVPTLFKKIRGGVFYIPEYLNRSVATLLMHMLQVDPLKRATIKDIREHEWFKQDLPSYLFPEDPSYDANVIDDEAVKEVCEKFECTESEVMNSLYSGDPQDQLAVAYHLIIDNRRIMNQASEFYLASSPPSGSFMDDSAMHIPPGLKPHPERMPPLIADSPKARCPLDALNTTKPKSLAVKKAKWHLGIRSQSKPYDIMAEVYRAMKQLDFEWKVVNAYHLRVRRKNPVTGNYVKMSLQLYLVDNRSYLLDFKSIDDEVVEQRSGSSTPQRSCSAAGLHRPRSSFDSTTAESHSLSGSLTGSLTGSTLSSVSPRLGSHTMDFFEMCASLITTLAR
T1 sequence (Q9Y478 whole entry): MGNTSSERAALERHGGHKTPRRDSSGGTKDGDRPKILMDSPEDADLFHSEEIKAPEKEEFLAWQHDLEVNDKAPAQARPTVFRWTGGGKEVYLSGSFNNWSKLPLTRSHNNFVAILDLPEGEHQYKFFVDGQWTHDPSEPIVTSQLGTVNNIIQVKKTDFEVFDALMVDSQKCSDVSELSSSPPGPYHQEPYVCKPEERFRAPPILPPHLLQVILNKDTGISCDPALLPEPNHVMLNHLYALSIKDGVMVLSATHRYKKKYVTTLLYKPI
T1 sequence (P54619 whole entry partner): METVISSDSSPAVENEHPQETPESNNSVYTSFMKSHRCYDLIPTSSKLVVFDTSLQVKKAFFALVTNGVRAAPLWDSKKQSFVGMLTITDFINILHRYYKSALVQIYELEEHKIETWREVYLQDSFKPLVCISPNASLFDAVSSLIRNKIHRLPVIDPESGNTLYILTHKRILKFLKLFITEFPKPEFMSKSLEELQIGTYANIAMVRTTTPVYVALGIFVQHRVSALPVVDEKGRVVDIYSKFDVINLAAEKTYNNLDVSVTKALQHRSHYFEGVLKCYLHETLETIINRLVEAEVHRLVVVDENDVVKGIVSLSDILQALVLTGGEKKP

For the compound `O[C@@H]1CO[C@H]2[C@@H]1OC[C@H]2Oc1nc2nc(-c3ccc(-c4ccccc4)cc3)c(Cl)cc2[nH]1` [MK-8722, reference compound], the EC50 was found to be 334 nM, the Max. fold activation stood at 3.6 fold and the “sensitivity to activation relative to immobilised GST-α2β1γ1 from HEK293T/17 cells” value is reported as “at least 10 fold”.

As to `CC(=O)NC1CC=C(c2ccc(-c3nc4nc(Oc5ccc(C)c(C(=O)O)c5)[nH]c4cc3Cl)cc2)CC1` (stereo not drawn) [MSG011, 5-((5-(4′-Acetamido-2′,3′,4′,5′-tetrahydro-[1,1′-biphenyl]-4-yl)-6-chloro-1H-imidazo[4,5-b]pyridin-2-yl)oxy)-2-methylbenzoic acid], the response was half-maximal at 32.6 nM (EC50), the Max. fold activation came to 5.5 fold and the “sensitivity to activation relative to immobilised GST-α2β1γ1 from HEK293T/17 cells” value was “at least 10 fold”.

By EC50 is commonly meant the concentration at which the effect is half-maximal.
